Laboratory results reported in paper PMC11995724, “Antibiotic target discovery by integrated phenotypic and activity-based profiling of electrophilic fragments” (Cell chemical biology, 2025).

Test: in vitro
Settings: human, hek293t cells
Procedure: Mammalian cytotoxicity measurement was performed using Cell Titer-Glo 2.0 Cell Viability Assay (Promega, G9243) according to the manufacturer protocol. In brief, mammalian cells were seeded into 384-well white plates (Greiner, 781080) and incubated at 37°C for one day. Compounds from the Cys-Library were dispensed into the assay plate using epMotion 96. The plates were then incubated at 37°C for two days. An equal volume of Cell Titer-Glo 2.0 reagent was added into each well of the assay plate using epMotion 96 and incubated at 22°C for 10 min, followed by luminescence measurement using a Cytation 5 plate reader (BioTek).

Compound	viability at 48 h, 25 µM [%]
C=CC(=O)NC1(c2ccccc2)CCOC1 (stereo not drawn) [3-P04, N-(3-phenyloxolan-3-yl)prop-2-enamide]	89.3
C=CC(=O)NCc1ccc(C(=O)N2CCC(C#N)CC2)cc1 [3-P05, N-{[4-(4-cyanopiperidine-1-carbonyl)phenyl]methyl}prop-2-enamide]	46.3
C=CC(=O)N(C)CC(=O)Nc1ccc(N2CCC(O)CC2)cc1 [3-P06, N-({[4-(4-hydroxypiperidin-1-yl)phenyl]carbamoyl}methyl)-N-methylprop-2-enamide]	65.6
C=CC(=O)NC(c1nnc2n1CCC2)C(C)C (stereo not drawn) [3-P07, N-(2-methyl-1-{5H,6H,7H-pyrrolo[2,1-c][1,2,4]triazol-3-yl}propyl)prop-2-enamide]	52.1
C=CC(=O)NCc1ccc(C(C)(C)C)[nH]c1=O [3-P08, N-[(6-tert-butyl-2-oxo-1,2-dihydropyridin-3-yl)methyl]prop-2-enamide]	76.4
C=CC(=O)N1CCC(Cn2cnnc2)CC1 [3-P09, 1-{4-[(4H-1,2,4-triazol-4-yl)methyl]piperidin-1-yl}prop-2-en-1-one]	43.5
C=CC(=O)N1CCC(C(=O)NCC(C)c2ncc(C)s2)CC1 (stereo not drawn) [3-P10, N-[2-(5-methyl-1,3-thiazol-2-yl)propyl]-1-(prop-2-enoyl)piperidine-4-carboxamide]	61.4
C=CC(=O)N[C@H]1CCN(S(=O)(=O)c2ccccc2)C1 [3-P11, N-[(3S)-1-(benzenesulfonyl)pyrrolidin-3-yl]prop-2-enamide]	54.4
C=CC(=O)N1CCC(C(=O)N[C@H](C)c2ccc3c(c2)CCCC3)CC1 [3-P12, 1-(prop-2-enoyl)-N-[(1R)-1-(5,6,7,8-tetrahydronaphthalen-2-yl)ethyl]piperidine-4-carboxamide]	58
C=CC(=O)NC1(Cc2ccccc2)CC1 [3-P13, N-(1-benzylcyclopropyl)prop-2-enamide]	61.5
C=CC(=O)N1Cc2cnn(C)c2C1 [3-P14, 1-{1-methyl-1H,4H,5H,6H-pyrrolo[3,4-c]pyrazol-5-yl}prop-2-en-1-one]	87.3
C=CC(=O)NCc1oc(CC)nc1C [3-P15, N-[(2-ethyl-4-methyl-1,3-oxazol-5-yl)methyl]prop-2-enamide]	74.7
C=CC(=O)N(CC)Cc1nc2ccsc2c(=O)[nH]1 [3-P16, N-ethyl-N-({4-oxo-3H,4H-thieno[3,2-d]pyrimidin-2-yl}methyl)prop-2-enamide]	78.2
C=CC(=O)NC(C)c1ccc(-n2nc(C)cc2C)c(F)c1 (stereo not drawn) [3-P17, N-{1-[4-(3,5-dimethyl-1H-pyrazol-1-yl)-3-fluorophenyl]ethyl}prop-2-enamide]	76.1
C=CC(=O)NC1CS(=O)(=O)C1 [3-P18, N-(1,1-dioxo-1lambda6-thietan-3-yl)prop-2-enamide]	105
C=CC(=O)NCc1ccccc1-n1nc(C)cc1C [3-P19, N-{[2-(3,5-dimethyl-1H-pyrazol-1-yl)phenyl]methyl}prop-2-enamide]	59.1
C=CC(=O)N1CCN(c2nccn(C)c2=O)CC1 [3-P20, 1-methyl-3-[4-(prop-2-enoyl)piperazin-1-yl]-1,2-dihydropyrazin-2-one]	181
C=CC(=O)N1CCC(n2nc(C)nc2O)CC1 [3-P21, 1-[4-(5-hydroxy-3-methyl-1H-1,2,4-triazol-1-yl)piperidin-1-yl]prop-2-en-1-one]	49.8
C=CC(=O)NCc1ccc(-c2noc(C)n2)cc1 [3-P22, N-{[4-(5-methyl-1,2,4-oxadiazol-3-yl)phenyl]methyl}prop-2-enamide]	94.1
Cc1ccc(N(CCC#N)C(=O)CCl)cc1C [4-A03, 2-chloro-N-(2-cyanoethyl)-N-(3,4-dimethylphenyl)acetamide]	0.265

Compound	viability at 48 h, 25 µM [%]
CC(Cl)C(=O)Nc1ccc(F)c(Cl)c1 (stereo not drawn) [4-A04, 2-chloro-N-(3-chloro-4-fluorophenyl)propanamide]	56.5
O=C(CCl)NCc1cc([N+](=O)[O-])ccc1O [4-A05, 2-chloro-N-[(2-hydroxy-5-nitrophenyl)methyl]acetamide]	1.29
O=C(CCl)Nc1sc2c(c1C(=O)c1ccccc1)CCCC2 [4-A06, N-(3-benzoyl-4,5,6,7-tetrahydro-1-benzothiophen-2-yl)-2-chloroacetamide]	0.213
Cc1ccc(NC(=O)CCl)c([N+](=O)[O-])c1 [4-A07, 2-chloro-N-(4-methyl-2-nitrophenyl)acetamide]	2.99
O=C(CCl)NC(c1ccccc1)c1ccco1 (stereo not drawn) [4-A08, 2-chloro-N-[(furan-2-yl)(phenyl)methyl]acetamide]	2.75
Cc1ccc(NC(=O)CCl)cc1S(=O)(=O)N(C)C [4-A09, 2-chloro-N-[3-(dimethylsulfamoyl)-4-methylphenyl]acetamide]	-0.165
O=C(CCl)NCCN1C(=O)SC(=Cc2ccccc2F)C1=O [4-A10, 2-chloro-N-(2-{5-[(2-fluorophenyl)methylidene]-2,4-dioxo-1,3-thiazolidin-3-yl}ethyl)acetamide]	-0.106
COc1ccc(-c2csc(NC(=O)CCl)n2)c(O)c1 [4-A11, 2-chloro-N-[4-(2-hydroxy-4-methoxyphenyl)-1,3-thiazol-2-yl]acetamide]	-0.257
CC(Cl)C(=O)Nc1ccc(S(=O)(=O)N2CCCCC2)cc1 (stereo not drawn) [4-A12, 2-chloro-N-[4-(piperidine-1-sulfonyl)phenyl]propanamide]	64.8
COc1ccc(C(NC(=O)CCl)C(C)C)cc1 (stereo not drawn) [4-A13, 2-chloro-N-[1-(4-methoxyphenyl)-2-methylpropyl]acetamide]	11.2
CC(Cl)C(=O)Nc1ccc(Cl)cc1C(F)(F)F (stereo not drawn) [4-A14, 2-chloro-N-[4-chloro-2-(trifluoromethyl)phenyl]propanamide]	50.2
NC(=O)CSc1ccccc1NC(=O)CCl [4-A15, 2-{[2-(2-chloroacetamido)phenyl]sulfanyl}acetamide]	1.71
Cc1cc(C(C)(C)C)cc(C)c1CCNC(=O)CCl [4-A16, N-[2-(4-tert-butyl-2,6-dimethylphenyl)ethyl]-2-chloroacetamide]	0.58
CC(C)Cc1nnc(NC(=O)CCl)s1 [4-A17, 2-chloro-N-[5-(2-methylpropyl)-1,3,4-thiadiazol-2-yl]acetamide]	0.521
CN(CC(=O)NCc1ccco1)C(=O)CCl [4-A18, 2-chloro-N-({[(furan-2-yl)methyl]carbamoyl}methyl)-N-methylacetamide]	0.0249
COc1ccc2cc(CN(C)C(=O)CCl)ccc2c1 [4-A19, 2-chloro-N-[(6-methoxynaphthalen-2-yl)methyl]-N-methylacetamide]	-0.134
O=C(CCl)Nc1cc(-c2ccccc2)nn1-c1ccccc1 [4-A20, 2-chloro-N-(1,3-diphenyl-1H-pyrazol-5-yl)acetamide]	0.296
Cc1ccc(Oc2ccc(Cl)cc2NC(=O)CCl)cc1 [4-A21, 2-chloro-N-[5-chloro-2-(4-methylphenoxy)phenyl]acetamide]	98.6
O=C(CCl)N1N=C(c2ccccc2)CC1c1ccc2nccnc2c1 (stereo not drawn) [4-A22, 2-chloro-1-[3-phenyl-5-(quinoxalin-6-yl)-4,5-dihydro-1H-pyrazol-1-yl]ethan-1-one]	0.127
